Results published in ChEMBL document CHEMBL1127208, “Centaureidin, a cytotoxic flavone from Polymnia fruticosa, inhibits tubulin polymerization” (Bioorg Med Chem Lett, 1993).

Tests used:
[1] = Tested for the cytotoxicity concentration in CA46 burkitt lymphoma cells; type: functional, cell-based; conditions: Homo sapiens
[2] = biological target: Tubulin alpha chain (Sus scrofa, UniProt P02550); test: Tested for 50 % inhibition of tubulin polymerization by turbidimetric assay
[3] = biological target: Tubulin alpha chain (Sus scrofa) (UniProt P02550); test: Tested for the inhibition using the binding of 5 uM [3H]colchicine to purified tubulin at 37 degree Centigrade
Chain of Tubulin alpha chain (Sus scrofa) (P02550 whole entry, looked up): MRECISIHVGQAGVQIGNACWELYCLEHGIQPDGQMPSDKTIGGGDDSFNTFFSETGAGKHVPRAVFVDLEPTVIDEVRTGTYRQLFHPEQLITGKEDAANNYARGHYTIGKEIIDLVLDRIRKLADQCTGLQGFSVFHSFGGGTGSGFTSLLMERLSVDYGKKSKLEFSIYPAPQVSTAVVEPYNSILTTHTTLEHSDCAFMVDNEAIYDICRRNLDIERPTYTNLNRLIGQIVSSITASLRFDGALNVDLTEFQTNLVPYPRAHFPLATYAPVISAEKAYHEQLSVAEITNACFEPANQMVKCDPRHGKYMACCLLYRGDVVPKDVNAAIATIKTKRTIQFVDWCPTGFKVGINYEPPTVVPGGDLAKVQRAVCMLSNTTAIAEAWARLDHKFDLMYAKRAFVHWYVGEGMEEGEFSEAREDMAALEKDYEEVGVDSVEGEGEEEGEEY

Chain of Tubulin alpha chain (P02550 whole entry, looked up): as above

## COc1ccc(-c2oc3cc(O)c(OC)c(O)c3c(=O)c2OC)cc1O [CENTAUREIDIN]
[1]
  IC50: 200 nM
[2]
  IC50: 3000 nM

## COc1cc([C@@H]2c3cc4c(cc3[C@H](O)[C@H]3COC(=O)[C@H]23)OCO4)cc(OC)c1OC
[3]
  inhibition: 84%
